Test: recombinant UMI read abundance after kanamycin selection (control-corrected) (log10(CPM+1)); higher = more efficient recombination; extreme values may be limits of the assay; sequences stand for … in AGTGCAGAGAAAATCGGCCAGTTTTCTCTGCCTGCAGTCCGCATGCCGTGGGACCCCTTGGGTTCTAACCTGTTGCCTAGATTTATGCAGCGGACTGCCTTTCTCCCAAAGTGATAAACCGG…AGGTTGGTTTCACT; site = the 11-nt donor
How it was run: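 Pooled Escherichia coli screen of donor and donor-binding-loop pairs for the IS621 bridge recombinase. Each pair sits with a 12-nt UMI on a plasmid carrying a promoterless kanamycin gene. The library was co-electroporated with a target plasmid encoding a fixed target and T7-inducible recombinase, then plated with IPTG (0.07 mM) plus kanamycin, or unselected, each in two replicates. Recombinant UMIs were PCR-amplified across the donor–target junction and sequenced. Counts became CPM, averaged over replicates, scaled by control-derived factors and reported as log10(CPM+1).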
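Note: IS621 bridge recombinase in Escherichia coli cells against a fixed T5 target plasmid.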

Sequence	recombinant UMI read abundance (log10)
GTTAGAACATGGACCGGTTTTCCCGGTAATCCGTATTTGGC (site GTGAGAACTGC)	0
GCTACTGCATGGACCGGTTTTCCCGGTAATCCGTATTTGCC (site GCTACAGCTGG)	0
GTAGCCGCATGGACCGGTTTTCCCGGTAATCCGTATTTGCG (site GTAGGCGCTCG)	0.0284
TAGCTTTCATGGACCGGTTTTCCCGGTAATCCGTATTTGGT (site TAGCTTTCTAC)	0.807
CGGGCATCATGGACCGGTTTTCCCGGTAATCCGTATTTGCT (site CGGACATCTAG)	0.763
GTAAAGACATGGACCGGTTTTCCCGGTAATCCGTATTTGGG (site GTAAAGACTCC)	0.889
CGCGAGTCATGGACCGGTTTTCCCGGTAATCCGTATTTGTC (site CGCGAGTCTGA)	2.8
CCATACCCATGGACCGGTTTTCCCGGTAATCCGTATTTGTG (site CCATACCCTCA)	0.00448
TGTAGTACATGGACCGGTTTTCCCGGTAATCCGTATTTGAC (site TGTAGTACTGT)	0.509
GGGACATCATGGACCGGTTTTCCCGGTAATCCGTATTTGGA (site GGGACATCTTC)	1.52
CCGTCTACATGGACCGGTTTTCCCGGTAATCCGTATTTGCT (site CCGTTTACTAG)	0
ATACACACATGGACCGGTTTTCCCGGTAATCCGTATTTGGG (site ATACACACTCC)	0.537
CATGCAGCATGGACCGGTTTTCCCGGTAATCCGTATTTGCT (site CAAGCAGCTAG)	0.856
AATCCATCATGGACCGGTTTTCCCGGTAATCCGTATTTGTA (site AATCCATCTTA)	1.06
ACCCTAGCATGGACCGGTTTTCCCGGTAATCCGTATTTGTT (site AACCTAGCTAA)	0.0322
GCCCGCTCATGGACCGGTTTTCCCGGTAATCCGTATTTGAG (site GCCCGCTCTCT)	0.704
CTAGTAACATGGACCGGTTTTCCCGGTAATCCGTATTTGGA (site CTAGTAACTTC)	1.98
CGGAATCCATGGACCGGTTTTCCCGGTAATCCGTATTTGTT (site CGGGATCCTTA)	0.00923
AGTAAGACATGGACCGGTTTTCCCGGTAATCCGTATTTGCA (site AGAAAGACTTG)	1.66
CTCCGTACATGGACCGGTTTTCCCGGTAATCCGTATTTGCT (site CTCCGTACTAG)	1.45
GCATGGCCATGGACCGGTTTTCCCGGTAATCCGTATTTGCA (site GAATGGCCTTG)	0
CGGAATCCATGGACCGGTTTTCCCGGTAATCCGTATTTGTT (site CTCAATCCTAA)	0
CCGGAAACATGGACCGGTTTTCCCGGTAATCCGTATTTGCA (site CAGGAAACTTG)	0
CAGCTCGCATGGACCGGTTTTCCCGGTAATCCGTATTTGAC (site CAGCTCGCTGT)	2.55
GTTCGTGCATGGACCGGTTTTCCCGGTAATCCGTATTTGCA (site GTTCGTGCTTG)	1.96

Sequence	recombinant UMI read abundance (log10)
ACATCTACATGGACCGGTTTTCCCGGTAATCCGTATTTGTG (site ACTTCTACTCA)	0.371
AGCTCATCATGGACCGGTTTTCCCGGTAATCCGTATTTGGG (site AGCTCAACTCC)	0
TAATGAGCATGGACCGGTTTTCCCGGTAATCCGTATTTGGG (site TAATGAGCTCA)	0.00405
CGGGAGTCATGGACCGGTTTTCCCGGTAATCCGTATTTGCC (site CGGGAGTCTGC)	2.08
TAATGCTCATGGACCGGTTTTCCCGGTAATCCGTATTTGAA (site TAATGCTCTTT)	1.19
GGCGGCTCATGGACCGGTTTTCCCGGTAATCCGTATTTGTG (site GGCGGCTCTCA)	1.23
TGTTAGACATGGACCGGTTTTCCCGGTAATCCGTATTTGAG (site GGTTAGACTCT)	0.0119
ATCAGAACATGGACCGGTTTTCCCGGTAATCCGTATTTGAT (site ATCAGAACTAT)	1.88
TGGCCGGCATGGACCGGTTTTCCCGGTAATCCGTATTTGAC (site TGGCCGGCTGC)	0
AGCTGAGCATGGACCGGTTTTCCCGGTAATCCGTATTTGGG (site AGCTTAGCTCC)	0.0451
AGCCAAACATGGACCGGTTTTCCCGGTAATCCGTATTTGAA (site AGCCAAACTTT)	1.32
CAATGCTCATGGACCGGTTTTCCCGGTAATCCGTATTTGAA (site CAATACTCTTT)	1.94
CAATGCTCATGGACCGGTTTTCCCGGTAATCCGTATTTGAA (site GAATGCTCTTT)	0.00437
AAGCTCACATGGACCGGTTTTCCCGGTAATCCGTATTTGAT (site GAGCTCACTAT)	0.291
ATGAGCACATGGACCGGTTTTCCCGGTAATCCGTATTTGGC (site ATGAGCACTGC)	2.98
GTTATTCCATGGACCGGTTTTCCCGGTAATCCGTATTTGGT (site GTTGTTCCTAC)	0.00973
CACGGCACATGGACCGGTTTTCCCGGTAATCCGTATTTGTT (site CACGGCACTAA)	1.6
ATTGCCGCATGGACCGGTTTTCCCGGTAATCCGTATTTGTC (site ATTGCCGCTGA)	0.656
AACCGTCCATGGACCGGTTTTCCCGGTAATCCGTATTTGAT (site AACCGTCCTAG)	0
TCCACCGCATGGACCGGTTTTCCCGGTAATCCGTATTTGCG (site GCCACCGCTCG)	0.0147
TAGATGACATGGACCGGTTTTCCCGGTAATCCGTATTTGCT (site TAGATGACTAG)	2.49
CTTGTATCATGGACCGGTTTTCCCGGTAATCCGTATTTGAT (site CTTGTATCTAT)	1.29
CGGATACCATGGACCGGTTTTCCCGGTAATCCGTATTTGTT (site CGGAATCCTAA)	0.00671
TAGCTTGCATGGACCGGTTTTCCCGGTAATCCGTATTTGAA (site TAGCTCGCTTT)	0.0167
ACAAAGGCATGGACCGGTTTTCCCGGTAATCCGTATTTGCT (site ATAAAGGCTAG)	1.17

Sequence	recombinant UMI read abundance (log10)
TAAAGTCCATGGACCGGTTTTCCCGGTAATCCGTATTTGTA (site TAAAGTGCTTA)	0.00484
GGTACTGCATGGACCGGTTTTCCCGGTAATCCGTATTTGCC (site GATACTGCTGG)	0
CGGAATCCATGGACCGGTTTTCCCGGTAATCCGTATTTGTT (site AGGATTCCTAA)	0
CCGAAAGCATGGACCGGTTTTCCCGGTAATCCGTATTTGAT (site CCGAAAGCTAT)	0.975
CTTCGCACATGGACCGGTTTTCCCGGTAATCCGTATTTGAA (site CTTCGCACTTT)	0.375
CTTTACACATGGACCGGTTTTCCCGGTAATCCGTATTTGCT (site CTCTACACTAG)	1.2
CGTTAGACATGGACCGGTTTTCCCGGTAATCCGTATTTGAG (site CGATAGACTCT)	0.838
GACAACCCATGGACCGGTTTTCCCGGTAATCCGTATTTGGT (site GACAAACCTAC)	0
CCCGGCCCATGGACCGGTTTTCCCGGTAATCCGTATTTGCA (site CCCGGACCTTG)	0.00734
ACTAGTACATGGACCGGTTTTCCCGGTAATCCGTATTTGAG (site ACTAGGACTCT)	0.0174
AGGGCACCATGGACCGGTTTTCCCGGTAATCCGTATTTGCA (site GGGGCACCTTG)	0
AATTATGCATGGACCGGTTTTCCCGGTAATCCGTATTTGGT (site AATTATGCTGC)	0
GTGGCAACATGGACCGGTTTTCCCGGTAATCCGTATTTGCG (site GTGGCAACTCG)	1.03
CTGGTTTCATGGACCGGTTTTCCCGGTAATCCGTATTTGAC (site CTGGTTTCTGT)	1.87
GCCGCTCCATGGACCGGTTTTCCCGGTAATCCGTATTTGGT (site GCCGCTCCTAC)	0.0147
GCCACGCCATGGACCGGTTTTCCCGGTAATCCGTATTTGTG (site GCCACGCCTTA)	0.0106
AAGTTTACATGGACCGGTTTTCCCGGTAATCCGTATTTGAC (site AAGTTTACTGT)	1.97
CGGAATCCATGGACCGGTTTTCCCGGTAATCCGTATTTGTT (site CGGAATGCTCA)	0
CTCCGTACATGGACCGGTTTTCCCGGTAATCCGTATTTGCT (site CGCCGTACTAG)	0.00286
TTCTGTCCATGGACCGGTTTTCCCGGTAATCCGTATTTGCG (site TTCTGTCCTCG)	0.00535
ACCGAGCCATGGACCGGTTTTCCCGGTAATCCGTATTTGCG (site ACCGAGCCTCG)	0.0257
AGGAATCCATGGACCGGTTTTCCCGGTAATCCGTATTTGCT (site AGGAATCCTAG)	0
CAAGAGCCATGGACCGGTTTTCCCGGTAATCCGTATTTGTG (site CAAGGGCCTCA)	0.55
GTTAGAGCATGGACCGGTTTTCCCGGTAATCCGTATTTGGC (site GTTAGATCTGC)	1.51
CACTCCTCATGGACCGGTTTTCCCGGTAATCCGTATTTGCC (site CACTCCTCTGT)	2.74

— the supplement of paper PMC11208160
